# Legend:
# bedstraw = test: Test B pre/postemergence bedstraw; format: in vivo, Galium aparine
# Summary of the method: (§1)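 Test chemicals in a non-phytotoxic solvent mixture with surfactant were sprayed preemergence onto planted seeds and postemergence onto plants 2 to 18 cm tall (1- to 4-leaf stage). After twelve to sixteen days in a greenhouse, injury was visually rated against untreated controls from 0 (no effect) to 10 (complete control).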
# blackgrass = test: Test B pre/postemergence blackgrass; format: in vivo, Alopecurus myosuroides
# Summary of the method: as §1
# surinam grass = test: Test B pre/postemergence surinam grass; format: in vivo, Brachiaria decumbens
# Summary of the method: as §1
# cocklebur = test: Test B pre/postemergence cocklebur; format: in vivo, Xanthium strumarium
# Summary of the method: as §1
# corn = test: Test B pre/postemergence corn; format: in vivo, Zea mays
# Summary of the method: as §1
# morningglory = test: Test B pre/postemergence morningglory; format: in vivo, Ipomoea hederacea
# Summary of the method: as §1
# pigweed = test: Test B pre/postemergence pigweed; format: in vivo, Amaranthus retroflexus
# Summary of the method: as §1
# rape = test: Test B pre/postemergence rape; format: in vivo, Brassica napus
# Summary of the method: as §1
# soybean = test: Test B pre/postemergence soybean; format: in vivo, Glycine max
# Summary of the method: as §1
# sugar beet = test: Test B pre/postemergence sugar beet; format: in vivo, Beta vulgaris
# Summary of the method: as §1
# velvetleaf = test: Test B pre/postemergence velvetleaf; format: in vivo, Abutilon theophrasti
# Summary of the method: as §1
# wild oat = test: Test B pre/postemergence wild oat; format: in vivo, Avena fatua
# Summary of the method: as §1
# purple nutsedge = test: Test B pre/postemergence purple nutsedge; format: in vivo, Cyperus rotundus
# Summary of the method: as §1
# rice = test: Test B flood test rice; format: in vivo, Oryza sativa
# Summary of the method: (§2)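 Flood test on plants grown to the 2-leaf stage; treated plants kept in greenhouse twelve to sixteen days, then visually rated against controls on a 0 (no effect) to 10 (complete control) scale.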
# smallflower flatsedge = test: Test B flood test smallflower flatsedge; format: in vivo, Cyperus difformis
# Summary of the method: as §2
# bamyardgrass = test: Test B flood test barnyardgrass; format: in vivo, Echinochloa crus-galli
# Summary of the method: as §2
# [1] = Postemergence, Rate 62 g/ha, scale 0 to 10, 0 is no effect, 10 is complete control
# [2] = Postemergence, Rate 250 g/ha, scale of 0 to 10, 0 is no effect, 10 is complete control
# [3] = Preemergence, Rate 250 g/ha, scale 0 to 10 (0 no effect, 10 complete control)
# [4] = Preemergence, Rate 500 g/ha, scale of 0 to 10 where 0 is no effect and 10 is complete control
# [5] = Postemergence, Rate 125 g/ha, scale of 0 to 10 where 0 is no effect and 10 is complete control
# [6] = Postemergence, Rate 500 g/ha, scale of 0 to 10 where 0 is no effect and 10 is complete control
# [7] = Preemergence, Rate 62 g/ha, scale 0 to 10 (0 no effect, 10 complete control)
# [8] = Preemergence, Rate 125 g/ha, scale of 0 to 10 where 0 is no effect and 10 is complete control
# [9] = Rate 62 g/ha, flood test species, Pre-emergence, visual evaluation after twelve to sixteen days
# [10] = Rate 125 g/ha, under heading Pre-emergence, flood test species, visual evaluation after twelve to sixteen days
# [11] = Rate 250 g/ha, Pre-emergence (flood test species), scale 0 to 10, 0 is no effect, 10 is complete control
# [12] = Rate 500 g/ha, Pre-emergence section of Table B, 0 to 10 scale (0 no effect, 10 complete control)
smiles,measurement,setting,value
CC(C)N(C(=O)n1oc(=O)n(CNC(=O)c2ccccc2)c1=O)c1ccc(F)cc1F [Compound 619],"Plant response rating, Bedstraw",bedstraw; [1],0
same,Bedstraw plant response rating,bedstraw; [2],0
same,"Plant response rating, Bedstraw",bedstraw; [3],0
same,Bedstraw plant response rating,bedstraw; [4],0
same,"Plant response rating, Blackgrass",blackgrass; [1],0
same,"Plant response rating, Blackgrass",blackgrass; [5],0
same,Blackgrass plant response rating,blackgrass; [2],0
same,"Plant response rating, Blackgrass",blackgrass; [6],0
same,Blackgrass plant response rating,blackgrass; [7],0
same,Blackgrass plant response rating,blackgrass; [8],0
same,"Plant response rating, Blackgrass",blackgrass; [3],0
same,Blackgrass plant response rating,blackgrass; [4],0
same,"Plant response rating, B. signalgrass",surinam grass; [1],0
same,"Plant response rating, B. signalgrass",surinam grass; [5],0
same,B. signalgrass plant response rating,surinam grass; [2],0
same,"Plant response rating, B. signalgrass",surinam grass; [6],2
same,B. signalgrass plant response rating,surinam grass; [7],0
same,B. signalgrass plant response rating,surinam grass; [8],0
same,"Plant response rating, B. signalgrass",surinam grass; [3],0
same,B. signalgrass plant response rating,surinam grass; [4],3
same,"Plant response rating, Cocklebur",cocklebur; [1],0
same,"Plant response rating, Cocklebur",cocklebur; [5],0
same,Cocklebur plant response rating,cocklebur; [2],0
same,"Plant response rating, Cocklebur",cocklebur; [6],0
same,Cocklebur plant response rating,cocklebur; [7],0
same,Cocklebur plant response rating,cocklebur; [8],0
same,"Plant response rating, Cocklebur",cocklebur; [3],0
same,"Plant response rating, Cocklebur",cocklebur; [4],0
same,"Plant response rating, Corn",corn; [1],0
same,"Plant response rating, Corn",corn; [5],0
same,Corn plant response rating,corn; [2],0
same,"Plant response rating, Corn",corn; [6],0
same,Corn plant response rating,corn; [7],0
same,Corn plant response rating,corn; [8],0
same,"Plant response rating, Corn",corn; [3],0
same,"Plant response rating, Corn",corn; [4],2
same,"Plant response rating, Morningglory",morningglory; [1],0
same,"Plant response rating, Morningglory",morningglory; [5],1
same,Morningglory plant response rating,morningglory; [2],1
same,"Plant response rating, Morningglory",morningglory; [6],1
same,Morningglory plant response rating,morningglory; [7],0
same,Morningglory plant response rating,morningglory; [8],0
same,"Plant response rating, Morningglory",morningglory; [3],0
same,"Plant response rating, Morningglory",morningglory; [4],0
same,"Plant response rating, Redroot pigweed",pigweed; [1],0
same,"Plant response rating, Redroot pigweed",pigweed; [5],0
same,Redroot pigweed plant response rating,pigweed; [2],1
same,Redroot pigweed plant response rating,pigweed; [7],0
same,Redroot pigweed plant response rating,pigweed; [8],0
same,"Plant response rating, Redroot pigweed",pigweed; [3],0
same,"Plant response rating, Redroot pigweed",pigweed; [4],0
same,"Plant response rating, Rape",rape; [1],0
same,"Plant response rating, Rape",rape; [5],0
same,Rape plant response rating,rape; [2],0
same,"Plant response rating, Rape",rape; [6],3
same,Rape plant response rating,rape; [7],0
same,Rape plant response rating,rape; [8],0
same,"Plant response rating, Rape",rape; [3],0
same,"Plant response rating, Rape",rape; [4],0
same,"Plant response rating, Soybean",soybean; [1],1
same,"Plant response rating, Soybean",soybean; [5],1
same,Soybean plant response rating,soybean; [2],1
same,Soybean plant response rating,soybean; [7],0
same,Soybean plant response rating,soybean; [8],0
same,"Plant response rating, Soybean",soybean; [3],0
same,"Plant response rating, Soybean",soybean; [4],0
same,"Plant response rating, Sugarbeets",sugar beet; [1],0
same,"Plant response rating, Sugarbeets",sugar beet; [5],0
same,Sugarbeets plant response rating,sugar beet; [2],0
same,Sugarbeets plant response rating,sugar beet; [7],0
same,Sugarbeets plant response rating,sugar beet; [8],0
same,"Plant response rating, Sugarbeets",sugar beet; [3],0
same,"Plant response rating, Sugarbeets",sugar beet; [4],0
same,"Plant response rating, Velvetleaf",velvetleaf; [1],0
same,"Plant response rating, Velvetleaf",velvetleaf; [5],0
same,Velvetleaf plant response rating,velvetleaf; [2],2
same,Velvetleaf plant response rating,velvetleaf; [7],0
same,Velvetleaf plant response rating,velvetleaf; [8],0
same,"Plant response rating, Velvetleaf",velvetleaf; [3],0
same,"Plant response rating, Velvetleaf",velvetleaf; [4],4
same,"Plant response rating, Wild oats",wild oat; [1],0
same,"Plant response rating, Wild oats",wild oat; [5],0
same,Wild oats plant response rating,wild oat; [2],0
same,Wild oats plant response rating,wild oat; [7],0
same,Wild oats plant response rating,wild oat; [8],0
same,"Plant response rating, Wild oats",wild oat; [3],0
same,"Plant response rating, Wild oats",wild oat; [4],0
same,"Plant response rating, Nutsedge",purple nutsedge; [1],0
same,"Plant response rating, Nutsedge",purple nutsedge; [5],0
same,Nutsedge plant response rating,purple nutsedge; [2],0
same,"Plant response rating, Nutsedge",purple nutsedge; [6],0
same,Nutsedge plant response rating,purple nutsedge; [7],0
same,Nutsedge plant response rating,purple nutsedge; [8],0
same,"Plant response rating, Nutsedge",purple nutsedge; [3],0
same,"Plant response rating, Rice (0 to 10 scale, 0 is no effect, 10 is complete control)",rice; [9],0
same,"Rice plant response rating (0 to 10 scale, 0 is no effect, 10 is complete control)",rice; [10],0
same,Rice plant response rating,rice; [11],0
same,Rice plant response rating,rice; [12],0
same,"Plant response rating, S. Flatsedge (0 to 10 scale, 0 is no effect, 10 is complete control)",smallflower flatsedge; [9],0
same,"S. Flatsedge plant response rating (0 to 10 scale, 0 is no effect, 10 is complete control)",smallflower flatsedge; [10],0
same,S. Flatsedge plant response rating,smallflower flatsedge; [11],0
same,S. Flatsedge plant response rating,smallflower flatsedge; [12],0
same,"Plant response rating, Barnyardgrass (0 to 10 scale, 0 is no effect, 10 is complete control)",bamyardgrass; [9],0
same,"Barnyardgrass plant response rating (0 to 10 scale, 0 is no effect, 10 is complete control)",bamyardgrass; [10],0
same,Barnyardgrass plant response rating,bamyardgrass; [11],0
same,Barnyardgrass plant response rating,bamyardgrass; [12],0

# From US6737383B1, “Herbicidal oxadiazolidines” (priority 1999, dated 2004)
